Source: patent US20230393140A1, “BINDING ASSAYS INVOLVING A PLURALITY OF SYNTHETIC COMPOUNDS, TARGETS, AND COUNTER TARGETS” (SRI International, priority 2020, published 2023)
Where two headings read alike, the source gives them in different places. Numbered stars: 1 amine (or outer) side, 2 acyl side, 3 side chain; on linkers, the order of the positions; unused ones are H or OH. Square brackets hold non-standard residues; d marks the D form. Peptide text beside a SMILES is read from it. * marks the point of attachment. 5FAM = O=C1OC2(c3ccc(O)cc3Oc3cc(O)ccc32)c2ccc(C(=O)*)cc21; NHCH2C6H4(4-CH2CONH2) = NC(=O)Cc1ccc(CN*)cc1; X1 = O=C(Cc1ccc(CN[*:1])cc1)[*:2]

Molecular target: T1, IL-6R (Homo sapiens, UniProt P08887)
T1 construct: purchased Creative Biomart IL6R-584H
T1 sequence (P08887 20-355 limits assumed): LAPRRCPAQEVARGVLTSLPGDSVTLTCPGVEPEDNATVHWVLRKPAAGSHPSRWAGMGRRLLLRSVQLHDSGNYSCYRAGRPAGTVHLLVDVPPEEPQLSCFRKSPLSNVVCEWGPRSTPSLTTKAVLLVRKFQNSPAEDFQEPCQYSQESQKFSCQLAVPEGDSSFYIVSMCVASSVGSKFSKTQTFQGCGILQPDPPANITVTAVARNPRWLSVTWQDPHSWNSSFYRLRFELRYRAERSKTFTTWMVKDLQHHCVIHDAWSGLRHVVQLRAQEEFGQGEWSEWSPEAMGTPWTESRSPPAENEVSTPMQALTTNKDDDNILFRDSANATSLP
Assay: MST binding affinity of resynthesized NNP hits to IL-6R
Details: MST, NNP2 library hit, target SIL-6R, one-site binding model
Experimental: Hit binding affinity to various targets were determined using Microscale Thermophoresis (MST). MST experiments were performed on a Monolith NT.115pico (NanoTemper Technologies GmbH, Munich, Germany). Measurements were performed at room temperature, in triplicate with incubation periods of 15, 30 and 45 minutes. […] Targets were labeled using Nanotemper Monolith 2nd Generation Protein Labeling Kits. RED-MALEIMIDE (Maleimide-647-dye) labeling kit was used for K-Ras and RED-NHS (NHS-647-dye) labeling kit was used for IL-6, IL-6R, TNFα and ASGPR. The buffer for the ASGPR contained 20 mM HEPES pH 7.4, 150 mM NaCl, 10 mM MgCl2, 2 mM CaCl2, 0.05% Pluronic F-127, and 1 mM DTT; for IL-6 contained 20 mM HEPES pH 7.4, 150 mM KCl, 10 mM MgCl2, and 0.1% Pluronic F-127; for the soluble IL-6 receptor 20 mM HEPES pH 7.4, 150 mM NaCl, 10 mM MgCl2, and 0.05% Tween-20; for K-Ras 20 mM HEPES pH 7.4, 150 mM NaCl, 10 mM MgCl2, 0.05% Tween-20 and 1 mM DTT; for TNFα 10 mM HEPES pH 7.4, 150 mM NaCl, 10 mM MgCl2, 0.05% Polysorbate-20. Triplicate data was analyzed using MO.AffinityAnalysis software (NanoTemper Technologies GmbH).

[1] = read-out: KD (nM) [95% conf. int]

SMILES	Kd	Kd [1]
CC(C)C[C@H](NC(=O)[C@@H](CCCNC(=N)N)NC(=O)[C@@H](C)NC(=O)Cc1ccc(CNC(=O)[C@H](C)NC(=O)[C@@H](Cc2c[nH]c3ccccc23)NC(=O)[C@@H](CCC(=O)O)NC(=O)Cc2ccc(CNC(=O)[C@H](Cc3ccccc3)NC(=O)[C@@H](CCCCN)NC(=O)[C@@H](CCC(=O)O)NC(=O)Cc3ccc(CNC(=O)[C@H](CC(C)C)NC(=O)[C@@H](CCC(=O)O)NC(=O)[C@@H](CCCCN)NC(=O)Cc4ccc(CNC(=O)[C@H](CC(C)C)NC(=O)[C@H](NC(=O)[C@@H](CC(N)=O)NC(=O)Cc5ccc(CNC(=O)[C@@H](NC(=O)[C@@H](CC(N)=O)NC(=O)[C@H]6CCCN6C(=O)Cc6ccc(CNC(=O)[C@H](Cc7ccccc7)NC(=O)[C@@H](Cc7c[nH]c8ccccc78)NC(=O)[C@@H](CCCNC(=N)N)NC(=O)c7ccc8c(c7)C(=O)OC87c8ccc(O)cc8Oc8cc(O)ccc87)cc6)C(C)C)cc5)[C@H](C)O)cc4)cc3)cc2)cc1)C(=O)NCc1ccc(CC(=O)N[C@H](CCC(=O)O)C(=O)N[C@H](CCCNC(=N)N)C(=O)N[C@H](C(=O)NCc2ccc(CC(=O)N[C@H](Cc3ccccc3)C(=O)N[C@H](CCCCN)C(=O)NCC(=O)NCc3ccc(CC(N)=O)cc3)cc2)C(C)C)cc1 [IL6R-87-1, Fluorescein-(D)Arg-(D)Trp-(L)Phe-PAM-(D)Pro-(D)Asn-(L)Val-PAM-(D)Asn-(D)Thr-(L)Leu-PAM-(D)Lys-(D)Glu-(L)Leu-PAM-(D)Glu-(D)Lys-(L)Phe-PAM-(D)Glu-(D)Trp-(L)Ala-PAM-(D)Ala-(D)Arg- (L)Leu-PAM-(D)Glu-(D)Arg-(L)Val-PAM-(D)Phe-(D)Lys-Gly-PAM] (5FAM-[dR][dW]F[X1][dP][dN]V[X1][dN][dT]L[X1][dK][dE]L[X1][dE][dK]F[X1][dE][dW]A[X1][dA][dR]L[X1][dE][dR]V[X1][dF][dK]G-{NHCH2C6H4(4-CH2CONH2)})	1.2 nM	
CC(C)C[C@H](NC(=O)[C@@H](CCCNC(=N)N)NC(=O)[C@@H](C)NC(=O)Cc1ccc(CNC(=O)[C@H](CC(C)C)NC(=O)[C@@H](CCCNC(=N)N)NC(=O)[C@@H](CCC(=O)O)NC(=O)Cc2ccc(CNC(=O)[C@H](Cc3ccccc3)NC(=O)[C@@H](CCCCN)NC(=O)[C@@H](CCC(=O)O)NC(=O)Cc3ccc(CNC(=O)[C@H](CC(C)C)NC(=O)[C@@H](CCC(=O)O)NC(=O)[C@@H](CCCCN)NC(=O)Cc4ccc(CNC(=O)[C@H](CC(C)C)NC(=O)[C@H](NC(=O)[C@@H](CC(N)=O)NC(=O)Cc5ccc(CNC(=O)[C@H](Cc6ccccc6)NC(=O)[C@@H](CO)NC(=O)[C@@H](CCC(=O)O)NC(=O)Cc6ccc(CNC(=O)[C@H](CC(C)C)NC(=O)[C@@H](CC(C)C)NC(=O)[C@@H](Cc7ccc(O)cc7)NC(=O)c7ccc8c(c7)C(=O)OC87c8ccc(O)cc8Oc8cc(O)ccc87)cc6)cc5)[C@H](C)O)cc4)cc3)cc2)cc1)C(=O)NCc1ccc(CC(=O)N[C@H](Cc2c[nH]c3ccccc23)C(=O)N[C@H](CCCCN)C(=O)N[C@@H](CC(C)C)C(=O)NCc2ccc(CC(=O)N[C@H](Cc3ccccc3)C(=O)N[C@H](CCCCN)C(=O)NCC(=O)NCc3ccc(CC(N)=O)cc3)cc2)cc1 [IL6R-87-2] (5FAM-[dY][dL]L[X1][dE][dS]F[X1][dN][dT]L[X1][dK][dE]L[X1][dE][dK]F[X1][dE][dR]L[X1][dA][dR]L[X1][dW][dK]L[X1][dF][dK]G-{NHCH2C6H4(4-CH2CONH2)})		0.8 nM
CC(C)C[C@H](NC(=O)[C@@H](CCCNC(=N)N)NC(=O)[C@@H](C)NC(=O)Cc1ccc(CNC(=O)[C@H](CC(C)C)NC(=O)[C@@H](CCCNC(=N)N)NC(=O)[C@@H](CCC(=O)O)NC(=O)Cc2ccc(CNC(=O)[C@H](C)NC(=O)[C@@H](CCCCN)NC(=O)[C@@H](Cc3ccc(O)cc3)NC(=O)Cc3ccc(CNC(=O)[C@H](Cc4ccccc4)NC(=O)[C@@H](CC(N)=O)NC(=O)[C@@H](Cc4ccc(O)cc4)NC(=O)Cc4ccc(CNC(=O)[C@H](CC(C)C)NC(=O)[C@H](NC(=O)[C@@H](CC(N)=O)NC(=O)Cc5ccc(CNC(=O)[C@H](Cc6ccccc6)NC(=O)[C@@H](CO)NC(=O)[C@@H](CCC(=O)O)NC(=O)Cc6ccc(CNC(=O)[C@H](Cc7ccccc7)NC(=O)[C@@H](Cc7c[nH]c8ccccc78)NC(=O)[C@@H](CCCNC(=N)N)NC(=O)c7ccc8c(c7)C(=O)OC87c8ccc(O)cc8Oc8cc(O)ccc87)cc6)cc5)[C@H](C)O)cc4)cc3)cc2)cc1)C(=O)NCc1ccc(CC(=O)N[C@H](CCC(=O)O)C(=O)N[C@H](CCCNC(=N)N)C(=O)N[C@H](C(=O)NCc2ccc(CC(=O)N[C@H](Cc3ccccc3)C(=O)N[C@H](CCCCN)C(=O)NCC(=O)NCc3ccc(CC(N)=O)cc3)cc2)C(C)C)cc1 [IL6R-87-3, Fluorescein-(D)Arg-(D)Trp-(L)Phe-PAM-(D)Glu-(D)Ser-(L)Phe-PAM-(D)Asn-(D)Thr-(L)Leu-PAM-(D)Tyr-(D)Asn-(L)Phe-PAM-(D)Tyr-(D)Lys-(L)Ala-PAM-(D)Glu-(D)Arg-(L)Leu-PAM-(D)Ala-(D)Arg- (L)Leu-PAM-(D)Glu-(D)Arg-(L)Val-PAM-(D)Phe-(D)Lys-Gly-PAM] (5FAM-[dR][dW]F[X1][dE][dS]F[X1][dN][dT]L[X1][dY][dN]F[X1][dY][dK]A[X1][dE][dR]L[X1][dA][dR]L[X1][dE][dR]V[X1][dF][dK]G-{NHCH2C6H4(4-CH2CONH2)})	19 nM	
CC(C)C[C@H](NC(=O)[C@@H](CCCNC(=N)N)NC(=O)[C@@H](C)NC(=O)Cc1ccc(CNC(=O)[C@H](Cc2ccccc2)NC(=O)[C@@H](CCC(=O)O)NC(=O)[C@H]2CCCN2C(=O)Cc2ccc(CNC(=O)[C@@H](NC(=O)[C@@H](CCCNC(=N)N)NC(=O)[C@@H](Cc3c[nH]c4ccccc34)NC(=O)Cc3ccc(CNC(=O)[C@H](CC(C)C)NC(=O)[C@@H](CCC(=O)O)NC(=O)[C@@H](CCCCN)NC(=O)Cc4ccc(CNC(=O)[C@H](Cc5ccccc5)NC(=O)[C@@H](CO)NC(=O)[C@@H](CCCNC(=N)N)NC(=O)Cc5ccc(CNC(=O)[C@H](Cc6ccccc6)NC(=O)[C@@H](CO)NC(=O)[C@@H](CCC(=O)O)NC(=O)Cc6ccc(CNC(=O)[C@H](Cc7ccccc7)NC(=O)[C@H](NC(=O)[C@@H](CC(N)=O)NC(=O)c7ccc8c(c7)C(=O)OC87c8ccc(O)cc8Oc8cc(O)ccc87)C(C)C)cc6)cc5)cc4)cc3)C(C)C)cc2)cc1)C(=O)NCc1ccc(CC(=O)N2CCC[C@@H]2C(=O)N[C@H](CCCNC(=N)N)C(=O)N[C@@H](C)C(=O)NCc2ccc(CC(=O)N[C@H](Cc3ccccc3)C(=O)N[C@H](CCCNC(=N)N)C(=O)NCC(=O)NCc3ccc(CC(N)=O)cc3)cc2)cc1 [IL6R-87-4] (5FAM-[dN][dV]F[X1][dE][dS]F[X1][dR][dS]F[X1][dK][dE]L[X1][dW][dR]V[X1][dP][dE]F[X1][dA][dR]L[X1][dP][dR]A[X1][dF][dR]G-{NHCH2C6H4(4-CH2CONH2)})		22 nM
CC(C)C[C@H](NC(=O)[C@@H](CCCNC(=N)N)NC(=O)[C@@H](C)NC(=O)Cc1ccc(CNC(=O)[C@H](CC(C)C)NC(=O)[C@@H](CCCNC(=N)N)NC(=O)[C@@H](CCC(=O)O)NC(=O)Cc2ccc(CNC(=O)[C@@H](NC(=O)[C@@H](C)NC(=O)CNC(=O)Cc3ccc(CNC(=O)[C@@H](NC(=O)[C@@H](CCCNC(=N)N)NC(=O)[C@H]4CCCN4C(=O)Cc4ccc(CNC(=O)[C@H](CC(C)C)NC(=O)[C@H](NC(=O)[C@@H](CC(N)=O)NC(=O)Cc5ccc(CNC(=O)[C@H](CC(C)C)NC(=O)[C@@H](CCCNC(=N)N)NC(=O)[C@@H](CC(C)C)NC(=O)Cc6ccc(CNC(=O)[C@H](Cc7ccccc7)NC(=O)[C@@H](Cc7c[nH]c8ccccc78)NC(=O)[C@@H](CCCNC(=N)N)NC(=O)c7ccc8c(c7)C(=O)OC87c8ccc(O)cc8Oc8cc(O)ccc87)cc6)cc5)[C@H](C)O)cc4)C(C)C)cc3)C(C)C)cc2)cc1)C(=O)NCc1ccc(CC(=O)N2CCC[C@@H]2C(=O)N[C@H](CCCNC(=N)N)C(=O)N[C@@H](C)C(=O)NCc2ccc(CC(=O)N[C@H](Cc3ccccc3)C(=O)N[C@H](CCCNC(=N)N)C(=O)NCC(=O)NCc3ccc(CC(N)=O)cc3)cc2)cc1 [IL6R-87-5, Fluorescein-(D)Arg-(D)Trp-(L)Phe-PAM-(D)Leu-(D)Arg-(L)Leu-PAM-(D)Asn-(D)Thr-(L)Leu-PAM-(D)Pro-(D)Arg-(L)Val-PAM-Gly-(D)Ala-(L)Val-PAM-(D)Glu-(D)Arg-(L)Leu-PAM-(D)Ala-(D)Arg-(L)Leu- PAM-(D)Pro-(D)Arg-(L)Ala-PAM-(D)Phe-(D)Arg-Gly-PAM] (5FAM-[dR][dW]F[X1][dL][dR]L[X1][dN][dT]L[X1][dP][dR]V[X1]G[dA]V[X1][dE][dR]L[X1][dA][dR]L[X1][dP][dR]A[X1][dF][dR]G-{NHCH2C6H4(4-CH2CONH2)})	330 nM	
